Data reported in PubChem BioAssay (NCI).
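Test compounds were applied to cells in 96-well plates for 48 hours at 5 doses. TGI marks complete inhibition of growth.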

Columns and labels:
Assay in all cases: inhibition of tumour cell growth, NCI panel, 48 h
HOP-62 NSCLC = tested on: HOP-62 NSCLC
TK-10 renal = tested on: TK-10 renal
OVCAR-3 ovarian = tested on: OVCAR-3 ovarian
SF-295 CNS = tested on: SF-295 CNS
COLO 205 colon = tested on: COLO 205 colon
CCRF-CEM leukemia = tested on: CCRF-CEM leukemia
EKVX NSCLC = tested on: EKVX NSCLC
NCI/ADR-RES ovarian = tested on: NCI/ADR-RES ovarian
RPMI-8226 leukemia = tested on: RPMI-8226 leukemia
HOP-92 NSCLC = tested on: HOP-92 NSCLC
RXF 393 renal = tested on: RXF 393 renal
T-47D breast = tested on: T-47D breast
SNB-75 CNS = tested on: SNB-75 CNS
SK-MEL-28 melanoma = tested on: SK-MEL-28 melanoma
HCT-116 colon = tested on: HCT-116 colon
HL-60(TB) leukemia = tested on: HL-60(TB) leukemia
HT29 colon = tested on: HT29 colon
SW-620 colon = tested on: SW-620 colon
A549 NSCLC = tested on: A549 NSCLC
SN12C renal = tested on: SN12C renal
OVCAR-5 ovarian = tested on: OVCAR-5 ovarian
NCI-H522 lung = tested on: NCI-H522 lung
HCT-15 colon = tested on: HCT-15 colon
MDA-MB-435 = tested on: MDA-MB-435
UO-31 renal = tested on: UO-31 renal
SK-OV-3 ovarian = tested on: SK-OV-3 ovarian
NCI-H23 lung = tested on: NCI-H23 lung
MALME-3M melanoma = tested on: MALME-3M melanoma
MDA-MB-231 breast = tested on: MDA-MB-231 breast
IGROV1 ovarian = tested on: IGROV1 ovarian
786-0 renal = tested on: 786-0 renal
SF-539 CNS = tested on: SF-539 CNS
LOX IMVI melanoma = tested on: LOX IMVI melanoma
SF-268 CNS = tested on: SF-268 CNS
MDA-N = tested on: MDA-N
UACC-62 melanoma = tested on: UACC-62 melanoma
HCC-2998 colon = tested on: HCC-2998 colon
K-562 leukemia = tested on: K-562 leukemia
KM12 colon = tested on: KM12 colon
SR leukemia = tested on: SR leukemia
HS 578T breast = tested on: HS 578T breast
U251 CNS = tested on: U251 CNS
PC-3 prostate = tested on: PC-3 prostate
UACC-257 melanoma = tested on: UACC-257 melanoma
MCF7 breast = tested on: MCF7 breast
SK-MEL-5 melanoma = tested on: SK-MEL-5 melanoma
OVCAR-8 ovarian = tested on: OVCAR-8 ovarian
A498 renal = tested on: A498 renal
NCI-H226 lung = tested on: NCI-H226 lung
DU-145 prostate = tested on: DU-145 prostate
OVCAR-4 ovarian = tested on: OVCAR-4 ovarian
ACHN renal = tested on: ACHN renal
MOLT-4 leukemia = tested on: MOLT-4 leukemia
NCI-H460 lung = tested on: NCI-H460 lung
SNB-19 CNS = tested on: SNB-19 CNS
M14 melanoma = tested on: M14 melanoma
SK-MEL-2 melanoma = tested on: SK-MEL-2 melanoma
CAKI-1 renal = tested on: CAKI-1 renal

SMILES: Cc1ccc2c(c1)C(=O)C1(Cc3ccccc3C1=O)C2 (stereo unspecified)
- TGI (HOP-62 NSCLC): > 100 µM
- TGI (TK-10 renal): > 100 µM
- TGI (OVCAR-3 ovarian): > 100 µM
- TGI (SF-295 CNS): > 100 µM
- TGI (COLO 205 colon): > 100 µM
- TGI (CCRF-CEM leukemia): > 100 µM
- TGI (EKVX NSCLC): > 100 µM
- TGI (NCI/ADR-RES ovarian): > 100 µM
- TGI (RPMI-8226 leukemia): > 100 µM
- TGI (HOP-92 NSCLC): > 100 µM
- TGI (RXF 393 renal): > 100 µM
- TGI (T-47D breast): > 100 µM
- TGI (SNB-75 CNS): > 100 µM
- TGI (SK-MEL-28 melanoma): > 100 µM
- TGI (HCT-116 colon): > 100 µM
- TGI (HL-60(TB) leukemia): > 100 µM
- TGI (HT29 colon): > 100 µM
- TGI (SW-620 colon): > 100 µM
- TGI (A549 NSCLC): > 100 µM
- TGI (SN12C renal): > 100 µM
- TGI (OVCAR-5 ovarian): > 100 µM
- TGI (NCI-H522 lung): > 100 µM
- TGI (HCT-15 colon): > 100 µM
- TGI (MDA-MB-435): > 100 µM
- TGI (UO-31 renal): 39 µM
- TGI (SK-OV-3 ovarian): > 100 µM
- TGI (NCI-H23 lung): > 100 µM
- TGI (MALME-3M melanoma): > 100 µM
- TGI (MDA-MB-231 breast): > 100 µM
- TGI (IGROV1 ovarian): > 100 µM
- TGI (786-0 renal): > 100 µM
- TGI (SF-539 CNS): > 100 µM
- TGI (LOX IMVI melanoma): > 100 µM
- TGI (SF-268 CNS): > 100 µM
- TGI (MDA-N): > 100 µM
- TGI (UACC-62 melanoma): > 100 µM
- TGI (HCC-2998 colon): > 100 µM
- TGI (K-562 leukemia): > 100 µM
- TGI (KM12 colon): > 100 µM
- TGI (SR leukemia): > 100 µM
- TGI (HS 578T breast): > 100 µM
- TGI (U251 CNS): > 100 µM
- TGI (PC-3 prostate): > 100 µM
- TGI (UACC-257 melanoma): > 100 µM
- TGI (MCF7 breast): > 100 µM
- TGI (SK-MEL-5 melanoma): > 100 µM
- TGI (OVCAR-8 ovarian): > 100 µM
- TGI (A498 renal): > 100 µM
- TGI (NCI-H226 lung): > 100 µM
- TGI (DU-145 prostate): > 100 µM
- TGI (OVCAR-4 ovarian): > 100 µM
- TGI (ACHN renal): > 100 µM
- TGI (MOLT-4 leukemia): > 100 µM
- TGI (NCI-H460 lung): > 100 µM
- TGI (SNB-19 CNS): > 100 µM
- TGI (M14 melanoma): > 100 µM

SMILES: CSC(=S)N/N=C(\C)c1ccc(S(=O)(=O)N(C)c2ccccc2)cc1
- TGI (HOP-62 NSCLC): > 100 µM
- TGI (TK-10 renal): > 100 µM
- TGI (OVCAR-3 ovarian): > 100 µM
- TGI (SF-295 CNS): > 100 µM
- TGI (COLO 205 colon): > 100 µM
- TGI (EKVX NSCLC): > 100 µM
- TGI (NCI/ADR-RES ovarian): > 100 µM
- TGI (RPMI-8226 leukemia): > 100 µM
- TGI (HOP-92 NSCLC): > 100 µM
- TGI (RXF 393 renal): > 100 µM
- TGI (T-47D breast): > 100 µM
- TGI (SNB-75 CNS): > 100 µM
- TGI (SK-MEL-28 melanoma): > 100 µM
- TGI (HCT-116 colon): > 100 µM
- TGI (HL-60(TB) leukemia): > 100 µM
- TGI (HT29 colon): > 100 µM
- TGI (SW-620 colon): > 100 µM
- TGI (A549 NSCLC): > 100 µM
- TGI (SN12C renal): > 100 µM
- TGI (OVCAR-5 ovarian): > 100 µM
- TGI (HCT-15 colon): > 100 µM
- TGI (MDA-MB-435): > 100 µM
- TGI (UO-31 renal): > 100 µM
- TGI (SK-OV-3 ovarian): > 100 µM
- TGI (NCI-H23 lung): > 100 µM
- TGI (MALME-3M melanoma): 22.5 µM
- TGI (MDA-MB-231 breast): > 100 µM
- TGI (IGROV1 ovarian): > 100 µM
- TGI (786-0 renal): > 100 µM
- TGI (SF-539 CNS): > 100 µM
- TGI (LOX IMVI melanoma): > 100 µM
- TGI (SF-268 CNS): > 100 µM
- TGI (MDA-N): > 100 µM
- TGI (SK-MEL-2 melanoma): > 100 µM
- TGI (UACC-62 melanoma): > 100 µM
- TGI (HCC-2998 colon): > 100 µM
- TGI (K-562 leukemia): > 100 µM
- TGI (KM12 colon): > 100 µM
- TGI (SR leukemia): > 100 µM
- TGI (HS 578T breast): 87 µM
- TGI (U251 CNS): > 100 µM
- TGI (PC-3 prostate): > 100 µM
- TGI (UACC-257 melanoma): > 100 µM
- TGI (MCF7 breast): > 100 µM
- TGI (OVCAR-8 ovarian): > 100 µM
- TGI (A498 renal): > 100 µM
- TGI (NCI-H226 lung): > 100 µM
- TGI (DU-145 prostate): > 100 µM
- TGI (OVCAR-4 ovarian): > 100 µM
- TGI (ACHN renal): > 100 µM
- TGI (MOLT-4 leukemia): > 100 µM
- TGI (CAKI-1 renal): > 100 µM
- TGI (NCI-H460 lung): > 100 µM
- TGI (SNB-19 CNS): > 100 µM
- TGI (M14 melanoma): > 100 µM
